Reference: ChEMBL document CHEMBL1671783, “3-Thiomorpholin-8-oxo-8H-acenaphtho[1,2-b]pyrrole-9-carbonitrile (S1) based molecules as potent, dual inhibitors of B-cell lymphoma 2 (Bcl-2) and myeloid cell leukemia sequence 1 (Mcl-1): structure-based design and structure-activity relationship studies” (J Med Chem, 2011)
Calls of active or inactive are those of the source. The rule behind the calls is not given here.

How the values were obtained:
[1] = target: T1, Induced myeloid leukemia cell differentiation protein Mcl-1 (Homo sapiens, UniProt Q07820); assay: Displacement of FAM-Bid from human Mcl-1 after 30 mins by fluorescence polarization assay
[2] = target: T1, Induced myeloid leukemia cell differentiation protein Mcl-1; assay: Displacement of FAM-Bid from human Mcl-1 after 30 mins by ELISA
[3] = target: T2, Apoptosis regulator Bcl-2 (Homo sapiens, UniProt P10415); assay: Displacement of FAM-Bid from human recombinant Bcl-2 after 30 mins by ELISA
[4] = system: MCF7; assay: Cytotoxicity against human MCF7 cells after 24 hrs by MTT assay; type: functional, cell-based; conditions: MCF7, 24 h
[5] = system: SMMC-7721; assay: Cytotoxicity against human SMMC7721 cells after 24 hrs by MTT assay; type: functional, cell-based; conditions: SMMC-7721, 24 h
[6] = system: SMMC-7721; assay: Cytotoxicity against human SMMC7721 cells expressing high level of Mcl-1 after 24 hrs by MTT assay; type: functional, cell-based; conditions: SMMC-7721, 24 h
[7] = system: HEK293; assay: Cytotoxicity against human HEK293 cells after 24 hrs by MTT assay; type: cell-based; conditions: HEK293, 24 h
[8] = target: T2, Apoptosis regulator Bcl-2; assay: Displacement of FAM-Bid from human Bcl-2 after 30 mins by fluorescence polarization assay
[9] = target: T3, Apoptosis regulator BAX/Induced myeloid leukemia cell differentiation protein Mcl-1 (Homo sapiens) (UniProt Q07820+Q07812); assay: Inhibition of Mcl-1/Bax interaction in human MCF7 cells at 10 uM after 3 hrs by Western blotting; type: cell-based
[10] = target: T3, Apoptosis regulator BAX/Induced myeloid leukemia cell differentiation protein Mcl-1 (Homo sapiens); assay: Inhibition of Mcl-1/Bax interaction in human SMMC7721 cells at 10 uM after 3 hrs by Western blotting; type: cell-based; conditions: SMMC-7721
[11] = target: T2, Apoptosis regulator Bcl-2; assay: Binding affinity to Bcl-2
[12] = target: T1, Induced myeloid leukemia cell differentiation protein Mcl-1; assay: Binding affinity to Mcl-1
[13] = target: T4, MCL1-BAK1 complex (Homo sapiens) (UniProt Q07820+Q16611); assay: Inhibition of Mcl-1/Bak interaction in human MCF7 cells at 10 uM after 3 hrs by Western blotting; type: cell-based
[14] = target: T4, MCL1-BAK1 complex (Homo sapiens); assay: Inhibition of Mcl-1/Bak interaction in human SMMC7721 cells at 10 uM after 3 hrs by Western blotting; type: cell-based; conditions: SMMC-7721
[15] = target: T4, MCL1-BAK1 complex (Homo sapiens); assay: Inhibition of Mcl-1/Bak interaction in human SMMC7721 cells expressing high level of Mcl-1 at 10 uM after 3 hrs by Western blotting; type: cell-based; conditions: SMMC-7721

T2 sequence (P10415 whole entry): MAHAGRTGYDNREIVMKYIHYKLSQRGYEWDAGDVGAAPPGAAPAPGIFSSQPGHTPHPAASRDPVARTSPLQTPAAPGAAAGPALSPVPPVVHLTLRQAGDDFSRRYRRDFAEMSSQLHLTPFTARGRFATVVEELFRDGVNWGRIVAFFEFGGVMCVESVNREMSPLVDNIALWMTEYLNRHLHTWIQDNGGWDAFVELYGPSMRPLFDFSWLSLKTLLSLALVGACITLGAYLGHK
T1 sequence (Q07820 whole entry): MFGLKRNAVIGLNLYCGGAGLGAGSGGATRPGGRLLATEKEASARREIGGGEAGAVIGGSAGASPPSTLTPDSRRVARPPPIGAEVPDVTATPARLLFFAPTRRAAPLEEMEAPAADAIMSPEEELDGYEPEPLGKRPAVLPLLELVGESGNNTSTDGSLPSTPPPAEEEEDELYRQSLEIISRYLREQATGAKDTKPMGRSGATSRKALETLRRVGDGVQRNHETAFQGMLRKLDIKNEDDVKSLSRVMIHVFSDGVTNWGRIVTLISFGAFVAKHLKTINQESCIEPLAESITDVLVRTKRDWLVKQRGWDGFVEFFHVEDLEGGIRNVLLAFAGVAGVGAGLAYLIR
T3 sequence (Q07812 whole entry, looked up): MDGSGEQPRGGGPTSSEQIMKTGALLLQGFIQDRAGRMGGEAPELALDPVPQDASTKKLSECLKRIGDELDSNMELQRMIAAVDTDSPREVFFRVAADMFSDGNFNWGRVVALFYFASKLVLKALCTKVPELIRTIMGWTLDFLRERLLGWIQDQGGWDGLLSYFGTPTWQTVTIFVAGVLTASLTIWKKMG
T3 sequence (Q07820 whole entry, looked up): as the sequence (Q07820 whole entry) above

Structure (SMILES) | Ki [1] [nM] | IC50 [4] [nM] | IC50 [5] [nM] | IC50 [6] [nM] | IC50 [7] [nM] | other results
N#CC1=C2C(=NC1=O)c1cccc3c(N4CCSCC4)ccc2c13 | 62 | 90 | 170 | 190 | > 100000 | IC50 [2]: 35 nM; IC50 [3]: 285 nM; Ki [8]: 319 nM; Activity [9]: Active; Activity [10]: Active; Ki [11]: 310 nM; Ki [12]: 58 nM
Cc1ccc(Sc2ccc3c4c(cccc24)C2=NC(=O)C(C#N)=C23)cc1 | 1510 |  |  |  |  | 
N#CC1=C2C(=NC1=O)c1cccc3c(Sc4ccc(-c5ccccc5)cc4)ccc2c13 | 842 |  |  |  |  | 
N#CC1=C2C(=NC1=O)c1cccc3c(Sc4ccc(N)cc4)ccc2c13 |  | 12 | 18 | 16 | > 50000 | IC50 [2]: 5 nM; IC50 [3]: 302 nM; Activity [13]: Active; Activity [14]: Active; Activity [15]: inactive; Activity [9]: Active; Activity [10]: Active
N#CC1=C2C(=NC1=O)c1cccc3c(Sc4ccc(Br)cc4)ccc2c13 | 49 | 90 | 190 | 180 | > 50000 | Ki [8]: 382 nM; Activity [9]: Active; Activity [10]: Active
CC(C)c1ccc(Sc2ccc3c4c(cccc24)C2=NC(=O)C(C#N)=C23)cc1 | 82 |  |  |  |  | 
N#CC1=C2C(=NC1=O)c1cccc3c(Sc4ccccc4)ccc2c13 |  | > 50000 | > 50000 | > 50000 | > 50000 | Activity [13]: inactive; Activity [14]: inactive
CCC(C)(C)c1ccc(Sc2ccc3c4c(cccc24)C2=NC(=O)C(C#N)=C23)cc1 | 961 | 21300 | 11900 | 25600 | > 50000 | IC50 [2]: 585 nM; IC50 [3]: 342 nM

Now from value to compound, other results behind:

Ki [1] [nM] | Structure (SMILES) | IC50 [4] [nM] | IC50 [5] [nM] | IC50 [6] [nM] | IC50 [7] [nM] | other results
122 | CN(C)c1ccc(Oc2ccc3c4c(cccc24)C2=NC(=O)C(C#N)=C23)cc1 |  |  |  |  | 
151 | COc1ccc(Sc2ccc3c4c(cccc24)C2=NC(=O)C(C#N)=C23)cc1 |  |  |  |  | 
1280 | N#CC1=C2C(=NC1=O)c1cccc3c(Oc4ccc(-c5ccccc5)cc4)ccc2c13 |  |  |  |  | 
1920 | Cc1ccc(Oc2ccc3c4c(cccc24)C2=NC(=O)C(C#N)=C23)cc1 |  |  |  |  | 
91 | CN(C)c1ccc(Sc2ccc3c4c(cccc24)C2=NC(=O)C(C#N)=C23)cc1 |  |  |  |  | 
967 | CCC(C)(C)c1ccc(Oc2ccc3c4c(cccc24)C2=NC(=O)C(C#N)=C23)cc1 |  |  |  |  | 
99 | CC(C)c1ccc(Oc2ccc3c4c(cccc24)C2=NC(=O)C(C#N)=C23)cc1 |  |  |  |  | 
258 | COc1ccc(Oc2ccc3c4c(cccc24)C2=NC(=O)C(C#N)=C23)cc1 |  |  |  |  | 
